# According to patent US10285794B2, “Hernia repair device and methods” (priority 2016, dated 2019):
# Experiments:
# [1] = system: myofibroblast (scar cell) formation; assay: TGFβ-induced myofibroblast formation (expression of αSMA, calponin and collagen); assay type: cell-based; settings: hallmarks of myofibroblasts
# Text: Therapeutic options to treat excessive scarring are limited and most are not proven to be effective. Salinomycin is a novel small molecule that blocks myofibroblast (scar cell) formation.
# [2] = system: myofibroblast function (cellular contraction); assay type: cell-based
# Text: These novel studies highlight the potential of salinomycin to serve as the basis for new anti-scarring agents.
# [3] = system: human mesenchymal stem cells, human fibroblasts and fibroblasts from mouse, cat and pig; assay: cell culture studies of myofibroblast formation and function; assay type: cell-based
# [4] = system: peri-implant capsular scarring; assay: silicone discs impregnated with salinomycin placed submuscular in mice, Masson's trichrome staining; assay type: in vivo, mouse
# Text: Salinomycin can also be used effectively as a small molecule coating on silicone or temporary dressings such as PermeaDerm. […] In this study, silicone discs were impregnated with salinomycin or a control solvent and placed submuscular in mice. Surrounding tissue was harvested at 16 weeks and tissue sections were stained with Masson's trichrome.
# [5] = rabbit study with cutaneous injection (toxicity, irritation, skin sensitization); assay type: in vivo
# [6] = system: Gram-positive bacteria, including MRSA, MRSE and Mycobacterium tuberculosis; settings: cited from earlier work
# [7] = system: fungi such as Candida; settings: cited from earlier work
# [8] = system: Gram-negative bacteria; settings: cited from earlier work
smiles,measurement,setting,value
CC[C@@H](C(=O)[C@@H](C)[C@@H](O)[C@H](C)[C@@H]1O[C@@H]([C@@H](CC)C(=O)O)CC[C@@H]1C)[C@H]1O[C@]2(C=C[C@@H](O)[C@]3(CC[C@@](C)([C@H]4CC[C@](O)(CC)[C@H](C)O4)O3)O2)[C@H](C)C[C@@H]1C [Salinomycin],"ability of TGFβ to induce expression of αSMA, calponin and collagen",[1],potently blocks
same,myofibroblast function (cellular contraction),[2],effectively blocks
same,viability,[2],without affecting viability
same,doses that block myofibroblast formation and function,[3],50 to 200 nM
same,peri-implant capsular scarring,"[4]; silicone implants impregnated with 1 micromolar coating solution, mouse",dramatically reduce
same,scar formation (capsule thickness),"[4]; submuscular silicone discs in mice, tissue harvested at 16 weeks, Masson's trichrome",significantly reduced scar formation
same,irritation,[5]; in vivo,non-irritating
same,reactivity (signs of erythema or edema),[5]; in vivo,non-reactive
same,skin sensitization,[5]; in vivo,do not cause skin sensitization
same,toxicity,"[5]; low doses required for anti-scarring activity, cutaneous injection",non toxic
same,antimicrobial activity against Gram-positive bacteria,[6],high antimicrobial activity
same,activity against fungi,[7],inactive
same,activity against Gram-negative bacteria,[8],inactive
